Results published in patent US20110104121A1, “Female Reproductive Tract and Anal Prophylaxes” (priority 2008, published 2011).

How the values were obtained:
uterine epithelial cells = assay: Trappin-2/Elafin production by uterine epithelial cells on Poly(I:C) stimulation; format: cell-based, human; details: 24 hour conditioned media, ELISA
Description: (§1) Materials & Methods. A total of 11 different patients were used to obtain epithelial cells from the uterus, Fallopian tube, endocervix and ectocervix. Epithelial cells were isolated according to known methods (Fahey, et al. (1999) Am. J. Reprod. Immunol. 42(1):49-57; Fahey et al. (1998) Immunol. Invest. 27(3):167-80). Briefly, tissues were rinsed with 1×PBS and minced into 1-2 mm fragments prior to subjecting them to enzymatic digestion for 2 hours at 37° C. The enzyme mixture contained 3.4 mg/ml pancreatin (Invitrogen Life Technologies, Carlsbad, Calif.), 0.1 mg/ml hyaluronidase (Worthington Biochemical, Lakewood, N.J.), 1.6 mg/ml collagenase (Worthington Biochemical), and 2 mg/ml D-glucose, in 1×HBSS (Invitrogen Life Technologies). […] Epithelial cell sheets retained on the filter were recovered by rinsing and backwashing, centrifuged at 500×g for 10 minutes and analyzed for cell number and viability. […]
(§2) Concentrations of Trappin-2/Elafin in the apical and basolateral supernatants from primary FRT epithelial cells and CVL from HIV(+) and (−) women were determined with an ELISA Duoset kit (R&D Systems, Minneapolis, Minn., USA) according to the manufacturer's protocol. […] Amounts of Trappin-2/Elafin were measured based on a standard curve after OD measurements at 450 nm on an ELISA reader (Dynex, Chantilly, Va., USA). […]

[1] = tested on: Fallopian tube, endocervix, and ectocervix epithelial cells; assay: Trappin-2/Elafin production by Fallopian tube, endocervix and ectocervix epithelial cells on Poly(I:C) stimulation; format: cell-based, human; details: 4-6 patients per compartment
Description: as §1, §2

[2] = tested on: uterine epithelial cells (UTEC); assay: CCL20/MIP3α production by uterine (endometrium) epithelial cells on TLR agonist treatment; format: cell-based, human
Description: (§3) Materials and Methods. Source of Tissues Human uterine and Fallopian tube tissues were obtained from women undergoing hysterectomy. Tissues used in this study were collected from patients with benign conditions such as fibroids distal from the site of pathology. The sections were examined by a pathologist and proclaimed to be free of pathological lesions. A total of nine different patients were used to obtain uterine epithelial cells and a total of seven patients were used to obtain Fallopian tube epithelial cells.
(§4) Epithelial cells were isolated according to known methods (Fahey, et al. (1999) supra; Fahey, et al. (1998) supra) as described herein.
(§5) To establish a cell culture system of polarized human uterine epithelial cells (UTEC) and Fallopian tube epithelial cells (FTEC) with both apical and basolateral compartments, primary human UTEC and FTEC were cultured in Human Extracellular Matrix (Becton Dickenson, Franklin Lakes, N.J., USA)-coated Falcon cell culture inserts in 24-well culture plates (Fisher Scientific, Pittsburgh, Pa., USA). For these experiments, apical and basolateral compartments contained 300 and 850 μL of complete medium, respectively. The medium was changed every 2 days. […]
(§6) Concentrations of CCL20/MIP3α in the apical and basolateral supernatants from human primary UTEC and FTEC were determined with an ELISA Duoset kit (R&D Systems, Minneapolis, Minn., USA) according to the manufacturer's protocol. Amounts of CCL20/MIP3α were quantified based on a standard curve after OD measurements at 450 nm on an ELISA reader (Dynex, Chantilly, Va., USA).
(§7) Real-time RT-PCR was carried with a two-step protocol as described herein. […] As indicated herein, the software calculates the threshold cycle (Ct) for each reaction which was used to quantify the amount of starting template in the reaction.

[3] = tested on: Fallopian tube epithelial cells (FTEC); assay: CCL20/MIP3α production by Fallopian tube epithelial cells on Poly(I:C) treatment; format: cell-based, human
Description: as §3, §4, §5, §6, §7

HIV-1 X4/T-tropic IIIB = assay: TZM-bl infectivity assay, HIV-1 IIIB; format: cell-based; details: for post-infection inhibition, IIIB: 1 ng/ml
Description: (§8) The TZM indicator cell line is a HeLa cell derivative that expresses high levels of CD4, CCR5 and CXCR4 (Wei, et al. (2002) Antimicrob. Agents Chemother. 46(6):1896-905). The cells contain HIV long terminal repeat (LTR)-driven β-galactosidase and luciferase reporter cassettes that are activated by HIV tat expression.
(§9) TZM cells were seeded at 2×10^4 cells per well in a 96-well microtiter plate and allowed to adhere overnight at 37° C. Varying doses of recombinant human Trappin-2/Elafin (Peprotech, Rocky Hill, N.J.) were incubated with HIV-1 IIIB and BaL at multiplicity of infection (MOI) 1 for 1 hour at 37° C. in a final volume of 100 μl. Following incubation, the media was aspirated from TZM cells and the virus plus Trappin-2/Elafin was added to the cells along with 100 μl of TZM media. Luciferase activity was measured after 48 hours at 37° C. with 5% CO2 in a humidified incubator. Briefly, the supernatants were aspirated, and the cells were lysed with a BETA GLO luciferase assay substrate. Light intensity of each well was measured using a luminometer. Uninfected cells were used to determine background luminescence. All infectivity assays were performed in quadruplicate.
(§10) Other experiments were conducted in order to determine whether the inhibitory effects of Trappin-2/Elafin were at the cell surface level such as the blocking of a co-receptor. For these experiments, varying doses of Trappin-2/Elafin were directly added to TZM cells and incubated for 1 hour at 37° C. prior to washing with 1×PBS and addition of IIIB or BaL viruses. In additional experiments to determine possible post-infection mechanisms of inhibition by Trappin-2/Elafin, TZM cells were infected with HIV-1 IIIB and BaL at MOI 1 and were washed at 6 hours and 24 hours post-infection followed by the addition of 10 ng/ml rTrappin-2/Elafin. Assays were developed at 48 hours by addition of the BETA-GLO substrate and measuring relative light units using a luminometer.
(§11) Since HIV-1 is an important sexually transmitted pathogen, the activity of recombinant Trappin-2/Elaf in (rTrappin-2/Elafin) was evaluated against HIV-1 X4/T-tropic IIIB and R5/M-tropic BaL. HIV-1 IIIB and BaL were incubated with rTrappin-2/Elafin at 0.01, 0.1, 1, and 10 ng/ml for 1 hour at 37° C. TZM-bl indicator cells were plated the previous day at 25,000 cells per well and grown to 70-80% confluence. The virus-Trappin-2/Elafin mixture was added to the TZM cells and incubated for 48 hours at 37° C. At the end of the incubation period, BETA-GLO substrate was added to the cells and viral infection was quantified using a luminometer, expressed as relative light units (RLU). The data was expressed as percent of control with virus-only control set at 100%. […] Therefore, the concentrations of Trappin-2/Elafin showing anti-HIV-1 activity were in the range of physiological levels of this molecule that were secreted by the FRT epithelial cells. Since the inhibitory activity was observed as a result of pre-incubation of HIV-1 and rTrappin-2/Elafin, it is contemplated that the effect of Trappin-2/Elafin on viral infection was direct. […]
(§12) Laboratory-adapted viral strains HIV-1 IIIB (×4) and BaL (R5) were obtained and virus stocks were propagated in PHA-stimulated human PBMC and stored frozen at −80° C. Virus stocks produced in PBMC of molecularly cloned HIV-1 NL4.3 (×4; lab-adapted) and YU-2.c (R5; directly cloned without culture) were obtained. Virus titers were determined on TZM-bl cells as described herein. Also used was a PBMC-derived virus stock of pCH077.c, a recently generated Clade B infectious molecular clone matching the nucleotide sequence determined to be the transmitted/founder virus sequence of CHAVI subject 700010077. […]

HIV-1 R5/M-tropic BaL = assay: TZM-bl infectivity assay, HIV-1 BaL; format: cell-based
Description: as §8, §9, §10, §11, §12

TZM cells = format: cell-based, human
Description: Viability of TZM cells upon treatment with Trappin-2/Elafin and CVL was quantified using the […] 96° AQueous One Solution Cell Proliferation Assay (Promega) according to manufacturer's instructions. Briefly, reagent was added directly to cell cultures and incubated for 1 hour at 37° C. followed by reading the plate in a plate reader at OD 490 nm.

[4] = cells pre-incubated with 0.1 and 1 ng/ml 1 hour, washed
[5] = virus pre-incubated 1 hour with 0.01, 0.1, 1, 10 ng/ml, 48 hours

Row | Substance | Trappin-2/Elafin secretion by UT epithelial cells (uterine epithelial cells) | fraction of patients upregulating Trappin-2/Elafin [1] | CCL20/MIP3α mRNA upregulation ([2]; Poly(I:C) 25 μg/mL, 24 hours, five out of five patients) | endometrium CCL20/MIP3α secretion ([2]; Poly(I:C) 24 hours, ELISA) | CCL20/MIP3α level secreted by endometrium cells ([2]; stimulated with Poly(I:C), constitutive 0.2-7 ng/mL) | samples with CCL20/MIP3α mRNA upregulation ([3]; Poly(I:C) 24 hours) | Fallopian tube CCL20/MIP3α secretion ([3]; Poly(I:C) 24 hours, ELISA) | CCL20/MIP3α level secreted by Fallopian tube cells ([3]; stimulated with Poly(I:C), constitutive 5-12 ng/mL) | post-infection inhibition, IIIB (HIV-1 X4/T-tropic IIIB; added 6 hours post-infection) | post-infection inhibition, IIIB (HIV-1 X4/T-tropic IIIB; added 24 hours post-infection) | infectivity of TZM cells by IIIB after pre-exposure of the cells (HIV-1 X4/T-tropic IIIB; [4]) | inhibition of IIIB (HIV-1 X4/T-tropic IIIB; [5]) | post-infection inhibition, BaL (HIV-1 R5/M-tropic BaL; added 6 and 24 hours post-infection, 1 ng/ml) | infectivity of TZM cells by BaL after pre-exposure of the cells (HIV-1 R5/M-tropic BaL; [4]) | inhibition of BaL (HIV-1 R5/M-tropic BaL; [5]) | toxic effect on the TZM cells (viability) (TZM cells)
1 | Poly(I:C) | significantly increased | approximately ⅓ typically responded | greater than two-fold | significant increase | 5 to 12 ng/mL | two out of four samples | significant increase | 13 to 20 ng/mL |  |  |  |  |  |  |  | 
2 | rTrappin-2/Elafin: recombinant human Trappin-2/Elafin (Peprotech), serine protease inhibitor (AQEPVKGPVSTKPGSCPIILIRCAMLNPPNRCLKDTDCPGIKKCCEGSCGMACFVPQ; UniProt P19957 61-117, looked up) |  |  |  |  |  |  |  |  | no significant post-infection inhibition | slight inhibition | no effect | ~80% | no significant post-infection inhibition | no effect | ~60% | not due to toxic effect
